Experimental data: US8951975B2, “ECT2 peptides and vaccines including the same” (OncoTherapy Science, Inc., priority 2010, dated 2015)
“Also recorded” adds a separate entry of the source. Ends that are not written are not given here.

Experiments:
peptide-pulsed T2 cells [1] = experiment: IFN-gamma ELISPOT assay on CTLs induced with peptide-pulsed DCs; format: cell-based, human; details: for CTL inducibility / specific CTL activity of CTLs stimulated with the peptide: summary statement; for IFN-gamma production of CTLs induced with the peptide (ELISPOT): against peptide-pulsed target cells, compared with control without peptide
Description: Monocyte-derived dendritic cells (DCs) were used as antigen-presenting cells to induce cytotoxic T lymphocyte (CTL) responses against peptides presented on human leukocyte antigen (HLA). DCs were generated in vitro as described elsewhere (Nakahara S et al., Cancer Res 2003 Jul. 15, 63(14): 4112-8). Specifically, peripheral blood mononuclear cells (PBMCs) isolated from a normal volunteer (HLA-A*0201 positive) by Ficoll-Plaque (Pharmacia) solution were separated by adherence to a plastic tissue culture dish (Becton Dickinson) so as to enrich them as the monocyte fraction. The monocyte-enriched population was cultured in the presence of 1,000 U/ml of granulocyte-macrophage colony-stimulating factor (R&D System) and 1,000 U/ml of interleukin (IL)-4 (R&D System) in AIM-V Medium (Invitrogen) containing 2% heat-inactivated autologous serum (AS). After 7 days of culture, the cytokine-induced DCs were pulsed with 20 micro-g/ml of each of the synthesized peptides in the presence of 3 micro-g/ml of beta 2-microglobulin for 3 hrs at 37 degrees C. in AIM-V Medium. The generated cells appeared to express DC-associated molecules, such as CD80, CD83, CD86 and HLA class II, on their cell surfaces (data not shown). These peptide-pulsed DCs were then inactivated by X-irradiation (20 Gy) and mixed at a 1:20 ratio with autologous CD8+ T cells, obtained by positive selection with CD8 Positive Isolation Kit (Dynal). These cultures were set up in 48-well plates (Corning); each well contained 1.5×10^4 peptide-pulsed DCs, 3×10^5 CD8+ T cells and 10 ng/ml of IL-7 (R&D System) in 0.5 ml of AIM-V/2% AS medium. Three days later, these cultures were supplemented with IL-2 (CHIRON) to a final concentration of 20 IU/ml. On days 7 and 14, the T cells were further stimulated with the autologous peptide-pulsed DCs. The DCs were prepared each time by the same way described above. CTLs were tested against peptide-pulsed T2 cells after the 3rd round of peptide stimulation on day 21 (Tanaka H et al., Br J Cancer 2001 Jan. 5, 84(1): 94-9; Umano Y et al., Br J Cancer 2001 Apr. 20, 84(8): 1052-7; Uchida N et al., Clin Cancer Res 2004 Dec. 15, 10(24): 8577-86; Suda T et al., Cancer Sci 2006 May, 97(5): 411-9; Watanabe T et al., Cancer Sci 2005 August, 96(8): 498-506).
(§1) Specifically, peptide-pulsed T2 (1×10^4/well) was prepared as stimulator cells. Cultured cells in 48 wells were used as responder cells. IFN-gamma ELISPOT assay and IFN-gamma ELISA assay were performed under manufacture procedure.

peptide-pulsed T2 cells [2] = experiment: IFN-gamma ELISA assay of established CTL lines; format: cell-based, human; details: against target cells pulsed with the corresponding peptide vs without peptide pulse
Description: CTLs were expanded in culture using the method similar to the one described by Riddell et al. (Walter E A et al., N Engl J Med 1995 Oct. 19, 333(16): 1038-44; Riddell S R et al., Nat Med 1996 February, 2(2): 216-23). A total of 5×10^4 CTLs were suspended in 25 ml of AIM-V/5% AS medium with 2 kinds of human B-lymphoblastoid cell lines, inactivated by Mitomycin C, in the presence of 40 ng/ml of anti-CD3 monoclonal antibody (Pharmingen). One day after initiating the cultures, 120 IU/ml of IL-2 were added to the cultures. The cultures were fed with fresh AIM-V/5% AS medium containing 30 IU/ml of IL-2 on days 5, 8 and 11 (Tanaka H et al., Br J Cancer 2001 Jan. 5, 84(1): 94-9; Umano Y et al., Br J Cancer 2001 Apr. 20, 84(8): 1052-7; Uchida N et al., Clin Cancer Res 2004 Dec. 15, 10(24): 8577-86; Suda T et al., Cancer Sci 2006 May, 97(5): 411-9; Watanabe T et al., Cancer Sci 2005 August, 96(8): 498-506).
as §1

peptide-pulsed T2 cells [3] = experiment: IFN-gamma ELISA assay of CTL clones established by limiting dilution; format: cell-based, human; details: against target cells pulsed with peptide vs not pulsed
Description: The dilutions were made to have 0.3, 1, and 3 CTLs/well in 96 round-bottomed micro titer plate (Nalge Nunc International). CTLs were cultured with 1×10^4 cells/well of 2 kinds of human B-lymphoblastoid cell lines, 30 ng/ml of anti-CD3 antibody, and 125 U/ml of IL-2 in a total of 150 micro-l/well of AIM-V Medium containing 5% AS. 50 micro-1/well of IL-2 were added to the medium 10 days later so to reach a final concentration of 125 U/ml IL-2. CTL activity was tested on the 14th day, and CTL clones were expanded using the same method as described above (Uchida N et al., Clin Cancer Res 2004 Dec. 15, 10(24): 8577-86; Suda T et al., Cancer Sci 2006 May, 97(5): 411-9; Watanabe T et al., Cancer Sci 2005 August, 96(8): 498-506).
as §1

[4] = system: COS7 cells transfected with ECT2 and HLA-A*0201; experiment: Specific CTL activity against target cells exogenously expressing ECT2 and HLA-A*0201; format: cell-based, African green monkey; details: for Specific CTL activity against COS7 cells transfected with both ECT2 and HLA-A*0201: CTL clone (SEQ ID NO: 1) or CTL line (SEQ ID NO: 21) as effector cells; for Specific CTL activity against control COS7 cells expressing either HLA-A*0201 or ECT2: controls transfected with only one gene
Description: The cDNA encoding an open reading frame of target genes or HLA-A*0201 was amplified by PCR. The PCR-amplified product was cloned into a vector. The plasmids were transfected into COS7, which is the target genes and HLA-A*0201-null cell line, using lipofectamine 2000 (Invitrogen) according to the manufacturer's recommended procedures. After 2 days from transfection, the transfected cells were harvested with versene (Invitrogen) and used as the target cells (5×10^4 cells/well) for CTL activity assay.
The established CTL lines and clones raised against these peptides was examined for the ability to recognize target cells that exogenously express ECT2 and HLA-A*0201 molecule. […] COS7 cells transfected with either full length of ECT2 or HLA-A*0201 were prepared as the controls.

Substance | CTL inducibility / specific CTL activity of CTLs stimulated with the peptide (peptide-pulsed T2 cells [1]) | IFN-gamma production of CTL lines stimulated with the peptide (ELISA) (peptide-pulsed T2 cells [2]) | IFN-gamma production of CTLs induced with the peptide (ELISPOT) (peptide-pulsed T2 cells [1]) | IFN-gamma production of CTL clones stimulated with the peptide (ELISA) (peptide-pulsed T2 cells [3]; listed as ECT2-A02-9-664) | Specific CTL activity against COS7 cells transfected with both ECT2 and HLA-A*0201 ([4]; listed as ECT2-A02-9-34) | Specific CTL activity against control COS7 cells expressing either HLA-A*0201 or ECT2 [4] | IFN-gamma production of CTL clones stimulated with the peptide (ELISA) (peptide-pulsed T2 cells [3]; listed as ECT2-A02-9-34) | Specific CTL activity against COS7 cells transfected with both ECT2 and HLA-A*0201 ([4]; listed as ECT2-A02-10-33)
1 (LLIGSTSYV) [compound 1] | strong CTL inducibility | – | – | – | – | – | – | –
3 (FLFNDCLEI) [compound 3] | strong CTL inducibility | – | – | – | – | – | – | –
21 (NLLIGSTSYV) [compound 21] | strong CTL inducibility | – | – | – | – | – | – | –
FLFNDCLEI [SEQ ID NO: 3] | significant and specific CTL activity | potent IFN-gamma production | potent IFN-gamma production | potent IFN-gamma production | – | – | – | –
LLIGSTSYV [SEQ ID NO: 1] | significant and specific CTL activity | potent IFN-gamma production | potent IFN-gamma production | – | potent CTL activity; also recorded: specific CTL activity | no significant specific CTL activity was detected | potent IFN-gamma production | –
NLLIgSTSYV (NLLIGSTSYV; not fully specified; printed as NLLIgSTSYV) [SEQ ID NO: 21] | significant and specific CTL activity | potent IFN-gamma production | potent IFN-gamma production | – | – | no significant specific CTL activity was detected | – | potent CTL activity; also recorded: specific CTL activity
